The values that follow come from patent US20230416329A1, “A PEPTIDE WITH DISULFIDE BONDS AND INHIBITORY ACTIVITY AGAINST SERINE PROTEASES, DERIVED HYBRID PEPTIDES THEREOF, AND USES THEREOF” (INSTITUTE OF MATERIA MEDICA , CHINESE ACADEMY OF MEDICAL …, priority 2020, published 2023).

In series [1] the target is T1, trypsin (Bos taurus, UniProt P00760).
T1 sequence (P00760 24-246): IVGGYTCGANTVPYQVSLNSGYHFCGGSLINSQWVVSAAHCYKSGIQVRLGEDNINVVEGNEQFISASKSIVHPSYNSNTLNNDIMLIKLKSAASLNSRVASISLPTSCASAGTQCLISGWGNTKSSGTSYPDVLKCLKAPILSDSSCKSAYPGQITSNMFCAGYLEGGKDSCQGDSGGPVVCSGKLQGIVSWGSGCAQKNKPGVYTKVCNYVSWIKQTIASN
Briefly: in vitro. Particulars: for Remaining peak area (%)/Trypsin: 0 h. The essentials: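 Peptides were preincubated for 5 min at 37 °C and then digested with 0.05 μg/μL trypsin solution (stock). Remaining intact peptide was quantified as RP-HPLC peak area.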

For series [2], the target named is chymotrypsin (Bos taurus, UniProt P00766). Put plainly: in vitro. The method in brief:
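Peptide and 0.05 μg/μL chymotrypsin were preincubated at 37 °C for 5 min, then mixed. Aliquots taken from 1.5 up to 60.0 min were quenched with 10% TFA, and remaining peptide was measured as RP-HPLC peak area.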

For series [3] the following is noted: rat, in vivo. As to the method:
(§1) Rats were fasted for 12 hours with water ad libitum before the experiment. The animals were randomly divided into 4 groups (5 animals in each group). The normal control group was injected with normal saline solution, and the commercially available salmon Calcitonin (sCat) and synthetic Calcitonin analog (CalM) were injected subcutaneously. The capsule form Cal BT (1 umol/kg, p.o.) was administered by gavage.

The subject of series [4] is mouse ear swelling. Put plainly: Croton oil mouse ear swelling, IL-17A inhibitory peptide administered subcutaneously. Type of series: in vivo. Conditions: subcutaneous, peptides 30 mg/kg, Secukinumab 5 mg/kg. As to the method:
IL-17A is an inflammatory factor in many chronic inflammatory reactions. In order to quickly evaluate and analyze its anti-inflammatory effects, a mouse ear swelling model was first used for preliminary screening of anti-inflammatory activities. The experimental process is as follows. Kunming male mice (18-20 g, n=10) were labeled with picric acid. All mice in each group were coated with 10 μL croton oil on both sides of the right ear. Immediately after modeling, the positive drugs Secukinumab group (5 mg/kg), inhibitory peptides 17A, 17A-BT, 17A-CH, and 17A-EC (30 mg/kg) were subcutaneously injected. The model control group (Con) was injected with a corresponding volume of physiological saline. After causing inflammation for 4 hours, the mice in each group were killed for cervical dislocation, and then the ear pieces were punched in the symmetrical parts of the left and right ears with a hole punch. The weight was weighed and recorded. The swelling degree and swelling rate were calculated:
(§2) Swelling rate=((right ear mass−left ear mass)/left ear mass)*100%

Series [5] relates to mouse ear swelling. Put plainly: Croton oil mouse ear swelling, IL-17A inhibitory peptide administered via duodenum. The format is in vivo. Conditions: peptides 300 mg/kg, dexamethasone 1 mg/mL, 10 mL/kg. Here is the method: Enteric coating technology can be used to achieve oral administration of targeted small intestine drugs. Considering factors such as gastric emptying and physical barriers in the stomach, in order to accurately detect the feasibility of direct intestinal administration of targeted IL-17A inhibitory peptide, duodenal administration is designed. Eight mice in each group are subjected to surgical exposure of the duodenum under ether anesthesia, and the drug is injected according to different grouping schemes.
The model control group (Con) is given PEG400 (50%, w/v)/physiological saline. The administration group was given different polypeptide samples (300 mg/kg), while the positive control group was given dexamethasone (1 mg/mL, 10 mL/kg), and then the muscular layer and cortex were sutured. Ear swelling model was established 6 minutes after suture. All mice in each group were coated with 10 μL croton oil on both sides of the right ear. After 4 hours of inflammation, the mice in each group were killed for cervical dislocation. After that, ear pieces were punched in the symmetrical parts of the left and right ears with a hole punch and weighed. Their mass was recorded. The swelling degree and swelling rate were calculated:
as §2

Series [6] relates to rats. Briefly: Hypo-calcifying effect of salmon calcitonin and analogues, blood calcium concentration in rats. Type of series: in vivo, rat. Particulars: sCat and CalM subcutaneous, capsule form Cal BT 1 umol/kg p.o., 0-24 h. As to the method: FIG. 24. The blood calcium concentration percentage-time curve of rat.
as §1
Take blood from the inner canthus of rats at the predetermined time points: 0, 2, 3, 4, 6, 8, 12, and 24 h later, with at least 0.2 mL of blood taken each time. The blood sample was placed at 4° C. for stratification and centrifuged at 3000 rpm for 10 minutes. The serum was separated and measured for serum calcium ion concentration.
The serum calcium ion concentration at 0 h was considered as baseline, the blood calcium concentration at other time was converted into the percentage ratio of baseline. The blood calcium curve was drawn with time as the X axis and the percentage of blood calcium concentration (%) as the Y axis.

The mark [7] stands for this setting: isolated enzyme trypsin, pH 7.8.
[8] abbreviates: isolated enzyme chymotrypsin, pH 7.8, Remaining peak area (%)/chymotrypsin.

Several values for one entry are separate records, joined by “and”; a condition that tells them apart may be missing. Identical values can stand only once. Bridge positions count the residues as written; N and C are the ends. Peptide text beside a SMILES is read from it.

On to `CC(C)C[C@H](NC(=O)CNC(=O)[C@@H]1CSSC[C@H](N)C(=O)N[C@@H](CO)C(=O)N[C@@H](CC(N)=O)C(=O)N[C@@H](CC(C)C)C(=O)N[C@@H](CO)C(=O)N[C@@H]([C@@H](C)O)C(=O)N1)C(=O)NCC(=O)N[C@@H](CCCCN)C(=O)N[C@@H](CC(C)C)C(=O)N[C@@H](CO)C(=O)N[C@@H](CCC(N)=O)C(=O)N[C@@H](CCC(=O)O)C(=O)N[C@@H](C)C(=O)N[C@@H](Cc1c[nH]cn1)C(=O)N[C@@H](CCCCN)C(=O)N[C@@H](CC(C)C)C(=O)N[C@@H](CCC(N)=O)C(=O)N[C@H](C(=O)N[C@@H](Cc1ccc(O)cc1)C(=O)N1CCC[C@H]1C(=O)N[C@@H](CCCNC(=N)N)C(=O)N[C@H](C(=O)N[C@@H](CC(N)=O)C(=O)N[C@H](C(=O)NCC(=O)N[C@@H](CO)C(=O)NCC(=O)N[C@H](C(=O)N1CCC[C@H]1C(=O)O)[C@@H](C)O)[C@@H](C)O)[C@@H](C)O)[C@@H](C)O` [CalM] (H-CSNLSTCGLGKLSQEAHKLQTYPRTNTGSGTP-OH; disulfide 1-7), for which, in series [1], the “stability towards trypsin hydrolysis (in words)” value is given as “extremely unstable towards trypsin” and the “Remaining peak area (%)/Trypsin” value was found to be 100.0 ± 0.0%. Besides, in series [1] (setting [7]), the share remaining at 0.025 h, 60 μM is 9 ± 2.3%; the share remaining at 0.05 h, 60 μM is 0%; the fraction remaining at 0.075 h, 60 μM is 0%; the amount remaining at 0.1 h, 60 μM is 0%. The compound also yielded a share remaining at 0.15 h, 60 μM in series [1] (setting [7]) of 0%. The same compound gave a fraction remaining at 1 h, 60 μM in series [2] (isolated enzyme chymotrypsin, pH 7.8, prototype peptide remaining after chymotrypsin hydrolysis) of roughly 4.9%. In series [3], the “Body weight (g) X ± SD End” value was 160.9 ± 4.7 g, the “Body weight (g) X ± SD Start” value stood at 180.2 ± 6.8 g and the “Changes of body weight (%)” value is −10.71%.

As to “Secukinumab: positive drug in the subcutaneous ear swelling test; anti IL-17A antibody”, the “Swelling (%)” value in series [4] (4 hours after croton oil) is reported as 72.54 ± 25.32 %. Besides, the “Swelling inhibitory (%)” value in series [4] (vs model control) came out at 37.36%.

As to `C[C@@H]1C[C@H]2[C@@H]3CCC4=CC(=O)C=C[C@]4(C)[C@@]3(F)[C@@H](O)C[C@]2(C)[C@@]1(O)C(=O)CO` [dexamethasone], the “Swelling (%)” value in series [5] (4 hours after croton oil) was 58.11 ± 18.81 % and 65.67 ± 15.52 %. The “Swelling inhibitory (%)” value in series [5] (vs model control) is 39.57% and 28.84%.

`CC[C@H](C)[C@@H]1NC(=O)[C@@H]2CCCN2C(=O)[C@@H]2CCCN2C(=O)[C@H]([C@@H](C)CC)NC(=O)[C@H](CO)NC(=O)[C@H](CCCCN)NC(=O)[C@H]([C@@H](C)O)NC(=O)[C@H](C)NC(=O)[C@H](CCCNC(=N)N)NC(=O)[C@H](C)NC(=O)[C@@H](NC(=O)CNC(=O)[C@@H]2CCCN2C(=O)[C@@H](NC(=O)CNC(=O)[C@H](CO)NC(=O)CNC(=O)[C@@H](NC(=O)[C@H](CC(N)=O)NC(=O)[C@@H](NC(=O)[C@H](CCCNC(=N)N)NC(=O)[C@@H]2CCCN2C(=O)[C@H](Cc2ccc(O)cc2)NC(=O)[C@@H](NC(=O)[C@H](CCC(N)=O)NC(=O)[C@H](CC(C)C)NC(=O)[C@H](CCCCN)NC(=O)[C@H](Cc2c[nH]cn2)NC(=O)[C@H](C)NC(=O)[C@H](CCC(=O)O)NC(=O)[C@H](CCC(N)=O)NC(=O)[C@H](CO)NC(=O)[C@H](CC(C)C)NC(=O)[C@H](CCCCN)NC(=O)CNC(=O)[C@H](CC(C)C)NC(=O)CNC(=O)[C@@H]2CSSC[C@H](N)C(=O)N[C@@H](CO)C(=O)N[C@@H](CC(N)=O)C(=O)N[C@@H](CC(C)C)C(=O)N[C@@H](CO)C(=O)N[C@@H]([C@@H](C)O)C(=O)N2)[C@@H](C)O)[C@@H](C)O)[C@@H](C)O)[C@@H](C)O)CSSC[C@@H](C(=O)N[C@@H](Cc2ccccc2)C(=O)O)NC1=O` [Cal-BT]: in series [1], the “stability towards trypsin hydrolysis (in words)” value is listed as “resistant to the corresponding protease degradation” and the “Remaining peak area (%)/Trypsin” value is 100.0 ± 0.0%. Further, in series [1] (setting [7]), the amount remaining at 0.025 h, 60 μM came to 84.2 ± 5.6%; the share remaining at 0.05 h, 60 μM came to 87.8 ± 1%; the amount remaining at 0.075 h, 60 μM was determined as 71.4 ± 0.9%; the amount remaining at 0.1 h, 60 μM turned out to be 74.3 ± 3.4%. Moreover, in series [1] (setting [7]), the amount remaining at 0.15 h, 60 μM stood at 77.1 ± 8.4%; the fraction remaining at 0.25 h, 60 μM was found to be 69.4 ± 6.5%; the amount remaining at 0.5 h, 60 μM was 69.5 ± 6.6%; the amount remaining at 1 h, 60 μM was 68.2 ± 8.4%. Moreover, in series [2], the “stability towards chymotrypsin hydrolysis (in words)” value is reported as “high tolerance to chymotrypsin”. In addition, in series [2] (0 h), the “Remaining peak area (%)/chymotrypsin” value was determined as 100.0 ± 0.0%. In series [2] (setting [8]), this compound registered a share remaining at 0.025 h, 60 μM of 86.3 ± 9%; a share remaining at 0.05 h, 60 μM of 83.9%; a share remaining at 0.075 h, 60 μM of 73.1 ± 1.7%; a fraction remaining at 0.1 h, 60 μM of 71.8 ± 1.1%. Moreover, in series [2] (setting [8]), the share remaining at 0.15 h, 60 μM came to 70 ± 3%; the amount remaining at 0.25 h, 60 μM worked out at 61.3%; the amount remaining at 0.5 h, 60 μM is 58.9 ± 2.3%; the fraction remaining at 1 h, 60 μM worked out at 46 ± 1.3%. Besides, in series [6], the “blood calcium concentration (in words)” value is on record as “did not effectively reduce the blood calcium concentration of rats within 24 h after administration”. For the same compound, the “blood calcium concentration (in words)” value in series [6] (listed as Cal BT) is listed as “did not effectively reduce the concentration of calcium ions in rats”. Besides, in series [3], the “Body weight (g) X ± SD End” value came to 158.9 ± 3.2 g, the “Body weight (g) X ± SD Start” value was found to be 176.1 ± 5.1 g and the “Changes of body weight (%)” value was −9.80%.
